From patent publication US20170349593A1, “BTK INHIBITORS” (MERCK SHARP & DOHME CORP., priority 2014, published 2017)

Legend:
[1] = target: T1, BTK enzyme (recombinant full-length BTK, hBTK) (Homo sapiens, UniProt Q06187); experiment: Btk enzyme activity assay (LANCE TR-FRET); type: biochemical; conditions: 50 pM hBTK, 25 μM ATP, 60 minute compound and enzyme incubation, concentration range 1 μM to 0.017 nM, read-out: BTK binding IC50
T1 construct: recombinant protein from baculovirus-transfected S 19 cells: full-length BTK, 6 HIS-tag cleaved; 6 HIS-tag (cleaved yes); made in house

[2] = tested on: adenosine uptake into HeLa cells; experiment: [3H]Adenosine uptake assay; type: cell-based; conditions: Homo sapiens; accumulation of [3H]adenosine into HeLa cells; concentration range 10 μM to 0.032 nM; read-out: ADU inhibition IC50
Experimental: Compounds are also screened in an adenosine uptake functional cellular assay using the protocol described below:
Adenosine uptake activity was determined by monitoring the accumulation of tritiated adenosine into HeLa cells (ATCC catalog #CCL-2) using a PMT-based radiometric detection instrument. In this assay, the potency (IC50) of each compound was determined from a ten point (1:3 serial dilution; final compound concentration range in assay from 10 μM to 0.032 nM) titration curve using the following outlined procedure. To each well of a 96-well CytoStar-T scintillating microplate (Perkin Elmer Catalog #RPNQ0163), 25 000 HeLa cells in 100 μL of growth medium comprising: Minimum Essential Media (Life Technologies Catalog #11095-080)+10% (v/v) foetal bovine serum (FBS; Sigma Aldrich Catalog #F2442) was added. These cells were incubated overnight at 37° C. in a humidified atmosphere with 5% (v/v) CO2. After this time the growth medium was removed and replaced with 40 μL assay medium comprising: Hanks balanced salts solution (HBSS; Thermo Fisher Catalog # SH30268.01)+5% (v/v) FBS. Compound stock solutions in DMSO were diluted in assay medium to 2.5× final compound concentration maintaining a constant DMSO concentration of 0.25% (v/v). 40 μL of compound in assay medium was dispensed into individual wells of the Cytostar-T plates and the plates were incubated for 30 minutes under ambient laboratory conditions. Following this incubation, 20 μL of 500 nM [^3H] adenosine (American Radiolabeled Chemicals Inc. Catalog #ART0287) in assay medium was added and incubated for a further 60 minutes under ambient laboratory conditions. The amount of radiolabel accumulation was then determined using a Perkin Elmer Topcount NXT microplate reader. In brief, HeLa cells adhere to the bottom of the Cytostar-T plate, uptake of [^3H]adenosine into these cells brings the radiolabel into sufficient proximity to excite the scintillant in the base of the plates. These events are captured by single PMT, time-resolved coincidence counting. IC50 values were determined by 4 parameter robust fit of counts per second values vs. (Log10)) compound concentrations.

T1 sequence (Q06187 whole entry): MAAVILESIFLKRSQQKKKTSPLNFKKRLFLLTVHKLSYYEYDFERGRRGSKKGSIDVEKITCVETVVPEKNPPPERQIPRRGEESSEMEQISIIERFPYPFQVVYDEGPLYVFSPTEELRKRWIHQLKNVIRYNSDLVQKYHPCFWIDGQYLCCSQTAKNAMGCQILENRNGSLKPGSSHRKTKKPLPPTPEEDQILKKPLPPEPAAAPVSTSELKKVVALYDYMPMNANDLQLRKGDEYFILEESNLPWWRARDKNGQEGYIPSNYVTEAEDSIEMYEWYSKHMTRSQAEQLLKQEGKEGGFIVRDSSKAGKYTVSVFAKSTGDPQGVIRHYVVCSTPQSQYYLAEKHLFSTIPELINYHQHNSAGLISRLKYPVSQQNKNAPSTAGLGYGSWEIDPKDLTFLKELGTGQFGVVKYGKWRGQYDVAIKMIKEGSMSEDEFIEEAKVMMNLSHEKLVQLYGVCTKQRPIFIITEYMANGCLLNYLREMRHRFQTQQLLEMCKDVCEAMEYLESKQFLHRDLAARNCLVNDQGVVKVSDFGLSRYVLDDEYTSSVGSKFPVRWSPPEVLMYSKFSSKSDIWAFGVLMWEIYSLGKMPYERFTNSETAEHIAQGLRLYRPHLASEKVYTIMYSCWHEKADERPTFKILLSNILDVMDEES

Row | SMILES | IC50 [1] | IC50 [2]
1 | COc1cc(C(=O)Nc2cc(C(F)(F)F)ccn2)ccc1-c1nc([C@H]2CN(C3CN(Cc4ccc(F)cc4)C3)[C@@H](C)CO2)n2ccnc(N)c12 [Example 31, 4-(8-amino-3-{(2R,5S)-4-[1-(4-fluorobenzyl)azetidin-3-yl]-5-methylmorpholin-2-yl}imidazo[1,5-a]pyrazin-1-yl)-3-methoxy-N-[4-(trifluoromethyl)pyridin-2-yl]benzamide] | 4.49 nM | 1040 nM
2 | COc1cc(C(=O)Nc2cc(C(F)(F)F)ccn2)ccc1-c1nc([C@H]2CN(C3CN(Cc4ccccc4F)C3)[C@@H](C)CO2)n2ccnc(N)c12 [Example 32, 4-(8-amino-3-{(2R,5S)-4-[1-(2-fluorobenzyl)azetidin-3-yl]-5-methylmorpholin-2-yl}imidazo[1,5-a]pyrazin-1-yl)-3-methoxy-N-[4-(trifluoromethyl)pyridin-2-yl]benzamide] | 6.41 nM | 1070 nM
3 | COCCC(=O)N1CC(C(=O)N2C[C@H](c3nc(-c4ccc(C(=O)Nc5cc(C(F)(F)F)ccn5)cc4OC)c4c(N)nccn34)OC[C@@H]2C)C1 [Example 33, 4-{8-amino-3-[(2R,5S)-4-{[1-(3-methoxypropanoyl)azetidin-3-yl]carbonyl}-5-methylmorpholin-2-yl]imidazo[1,5-a]pyrazin-1-yl}-3-methoxy-N-[4-(trifluoromethyl)pyridin-2-yl]benzamide] | 2.05 nM | ≥ 10000 nM
4 | COc1cc(C(=O)Nc2cc(C(F)(F)F)ccn2)ccc1-c1nc([C@H]2CN(C(=O)C3CN(C(=O)C4CC4)C3)[C@@H](C)CO2)n2ccnc(N)c12 [Example 34, 4-{8-amino-3-[(2R,5S)-4-{[1-(cyclopropylcarbonyl)azetidin-3-yl]carbonyl}-5-methylmorpholin-2-yl]imidazo[1,5-a]pyrazin-1-yl}-3-methoxy-N-[4-(trifluoromethyl)pyridin-2-yl]benzamide] | 2.65 nM | ≥ 10000 nM
5 | COc1cc(C(=O)Nc2cc(C(F)(F)F)ccn2)ccc1-c1nc([C@H]2CN(C(=O)C3CN(Cc4c(F)cccc4F)C3)[C@@H](C)CO2)n2ccnc(N)c12 [Example 35, 4-{8-amino-3-[(2R,5S)-4-{[1-(2,6-difluorobenzyl)azetidin-3-yl]carbonyl}-5-methylmorpholin-2-yl]imidazo[1,5-a]pyrazin-1-yl}-3-methoxy-N-[4-(trifluoromethyl)pyridin-2-yl]benzamide] | 3.21 nM | 747 nM
6 | COc1cc(C(=O)Nc2cc(C(F)(F)F)ccn2)ccc1-c1nc([C@H]2CN(C=O)[C@@H](C)CO2)n2ccnc(N)c12 [Example 36, 4-{8-amino-3-[(2R,5S)-4-formyl-5-methylmorpholin-2-yl]imidazo[1,5-a]pyrazin-1-yl}-3-methoxy-N-[4-(trifluoromethyl)pyridin-2-yl]benzamide] | 9.31 nM | 1680 nM
7 | COc1cc(C(=O)Nc2cc(C(F)(F)F)ccn2)ccc1-c1nc([C@H]2CN(C(=O)C3CN(Cc4ccccc4F)C3)[C@@H](C)CO2)n2ccnc(N)c12 [Example 37, 4-{8-amino-3-[(2R,5S)-4-{[1-(2-fluorobenzyl)azetidin-3-yl]carbonyl}-5-methylmorpholin-2-yl]imidazo[1,5-a]pyrazin-1-yl}-3-methoxy-N-[4-(trifluoromethyl)pyridin-2-yl]benzamide] | 2.77 nM | 702 nM

Results, then the compound that gave them:

Row | IC50 [1] | IC50 [2] | SMILES
8 | 2.25 nM | 2800 nM | COc1cc(C(=O)Nc2cc(C(F)(F)F)ccn2)ccc1-c1nc([C@H]2CN(C(=O)[C@H](C)O)[C@@H](C)CO2)n2c(Cl)cnc(N)c12 [Example 38, 4-(8-amino-5-chloro-3-{(2R,5S)-4-[(2S)-2-hydroxypropanoyl]-5-methylmorpholin-2-yl}imidazo[1,5-a]pyrazin-1-yl)-3-methoxy-N-[4-(trifluoromethyl)pyridin-2-yl]benzamide]
9 | 5.87 nM | 3800 nM | CCOc1cc(C(=O)Nc2cc(C(F)(F)F)n(C)n2)ccc1-c1nc([C@H]2CN(C3CCOCC3)[C@@H](C)CO2)n2ccnc(N)c12 [Example 39, 4-{8-amino-3-[(2R,5S)-5-methyl-4-(tetrahydro-2H-pyran-4-yl)morpholin-2-yl]imidazo[1,5-a]pyrazin-1-yl}-3-ethoxy-N-[1-methyl-5-(trifluoromethyl)-1H-pyrazol-3-yl]benzamide]
10 | 5.87 nM | 4620 nM | CCOc1cc(C(=O)Nc2cc(C(F)(F)F)n(C)n2)ccc1-c1nc([C@H]2CN(C3CCOCC3)[C@@H](C)CO2)n2c(Cl)cnc(N)c12 [Example 40, 4-{8-amino-5-chloro-3-[(2R,5S)-5-methyl-4-(tetrahydro-2H-pyran-4-yl)morpholin-2-yl]imidazo[1,5-a]pyrazin-1-yl}-3-ethoxy-N-[1-methyl-5-(trifluoromethyl)-1H-pyrazol-3-yl]benzamide]
11 | 0.626 nM | 383 nM | C[C@H]1CO[C@@H](c2nc(-c3ccc(C(=O)Nc4cc(C(F)(F)F)ccn4)cc3F)c3c(N)ncc(Cl)n23)CN1C(=O)C1CC1 [Example 41, 4-{8-amino-5-chloro-3-[(2R,5S)-4-(cyclopropylcarbonyl)-5-methylmorpholin-2-yl]imidazo[1,5-a]pyrazin-1-yl}-3-fluoro-N-[4-(trifluoromethyl)pyridin-2-yl]benzamide]
12 | 0.4 nM | 364 nM | C[C@H](O)C(=O)N1C[C@H](c2nc(-c3ccc(C(=O)Nc4cc(C(F)(F)F)ccn4)cc3F)c3c(N)ncc(Cl)n23)OC[C@@H]1C [Example 42, 4-(8-amino-5-chloro-3-{(2R,5S)-4-[(2S)-2-hydroxypropanoyl]-5-methylmorpholin-2-yl}imidazo[1,5-a]pyrazin-1-yl)-3-fluoro-N-[4-(trifluoromethyl)pyridin-2-yl]benzamide]
13 | 0.784 nM | 562 nM | C[C@H]1CO[C@@H](c2nc(-c3ccc(C(=O)Nc4cc(C(F)(F)F)ccn4)cc3)c3c(N)ncc(Cl)n23)CN1C(=O)C1CC1 [Example 43, 4-{8-amino-5-chloro-3-[(2R,5S)-4-(cyclopropylcarbonyl)-5-methylmorpholin-2-yl]imidazo[1,5-a]pyrazin-1-yl}-N-[4-(trifluoromethyl)pyridin-2-yl]benzamide]
14 | 0.358 nM | 362 nM | C[C@H]1CO[C@@H](c2nc(-c3ccc(C(=O)Nc4cc(C5CC5)ccn4)cc3F)c3c(N)ncc(Cl)n23)CN1C1CCOCC1 [Example 44, 4-{8-amino-5-chloro-3-[(2R,5S)-5-methyl-4-(tetrahydro-2H-pyran-4-yl)morpholin-2-yl]imidazo[1,5-a]pyrazin-1-yl}-N-(4-cyclopropylpyridin-2-yl)-3-fluorobenzamide]
15 | 0.68 nM | 512 nM | C[C@H](O)C(=O)N1C[C@H](c2nc(-c3ccc(C(=O)Nc4cc(C(F)(F)F)ccn4)cc3)c3c(N)ncc(Cl)n23)OC[C@@H]1C [Example 45, 4-(8-amino-5-chloro-3-{(2R,5S)-4-[(2S)-2-hydroxypropanoyl]-5-methylmorpholin-2-yl}imidazo[1,5-a]pyrazin-1-yl)-N-[4-(trifluoromethyl)pyridin-2-yl]benzamide]
16 | 1.94 nM | 2160 nM | COc1cc(C(=O)Nc2cc(C(F)(F)F)ccn2)ccc1-c1nc([C@H]2CN(C3CCOCC3)[C@@H](C)CO2)n2c(Cl)cnc(N)c12 [Example 46, 4-{8-amino-5-chloro-3-[(2R,5S)-5-methyl-4-(tetrahydro-2H-pyran-4-yl)morpholin-2-yl]imidazo[1,5-a]pyrazin-1-yl}-3-methoxy-N-[4-(trifluoromethyl)pyridin-2-yl]benzamide]
